From publication PMC11887212 (Journal of Hematology & Oncology, 2025)

Biological target: sorcin (Homo sapiens, UniProt P30626)
Assay: SPR
Type: binding

Chain of sorcin (P30626 whole entry): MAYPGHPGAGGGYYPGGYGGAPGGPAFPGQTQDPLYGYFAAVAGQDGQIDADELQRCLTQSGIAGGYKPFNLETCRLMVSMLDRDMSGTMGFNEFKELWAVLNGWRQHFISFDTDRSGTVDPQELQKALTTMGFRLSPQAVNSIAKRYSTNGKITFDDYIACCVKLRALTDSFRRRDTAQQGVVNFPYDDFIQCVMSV

CC1=C(O)C(=O)C=C2C1=CC=C1[C@@]2(C)CC[C@@]2(C)[C@@H]3C[C@](C)(C(=O)O)CC[C@]3(C)CC[C@]12C [compound 1, celastrol]
Kd: 2130 nM
